Ten molecules from US9617256B2 (priority 2007, dated 2017) can be followed below.

Molecules are shown by their SMILES. Values after ≈ are worked out from the molar mass of the structure shown. Where two headings read alike, the source gives them in different places.

The test system of assay [1] is APAE006 (strain of P. aeruginosa in which all efflux pumps are inactivated). The experiment in a line: microbe, parasite or virus in culture. The assay is classed as cell-based. The following applies: Pseudomonas aeruginosa, read-out: MIC APAE006, APAE006, all efflux pumps inactivated. In a few lines: (§1)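 Incubation: 35° C., ambient air, 18-24 h. Medium: cation-adjusted Mueller-Hinton broth with 2-fold serial dilutions of drug. Inoculum: 3×10^5–7×10^5 CFU/mL final, per CLSI microdilution method.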

In assay [2] the test system is APAE006 in the presence of 8 micrograms per milliliter of polymyxin B nonapeptide. It is filed as cell-based, P. aeruginosa. The following applies: APAE006 with 8 micrograms per milliliter polymyxin B nonapeptide. In short, it runs like this: as §1
Assay [3] concerns AABA1060 (clinical isolate of Acinetobacter baumannii). Put plainly: MIC broth microdilution, AABA1060. The following applies: Acinetobacter baumannii, read-out: MIC AABA1060. It is filed as cell-based. In short, it runs like this:
as §1

Assay [4] concerns AECO063 (ATCC25922 bearing an acrAB mutation). The experiment in a line: microbe, parasite or virus in culture. As to conditions: Escherichia coli, ATCC25922, read-out: MIC AECO063. The assay is classed as cell-based, E. coli. In short, it runs like this: as §1
Assay [5] deals with AECO001 (ATCC25922). The experiment in a line: MIC broth microdilution, AECO001. The assay is classed as cell-based, E. coli. As to conditions: Escherichia coli. In short, it runs like this: as §1
(In general: Broth dilution looks for growth in wells or tubes with falling amounts of substance.)

Assay [6] deals with APAE001 (ATCC27853). The experiment in a line: MIC broth microdilution, APAE001. The assay is classed as cell-based, P. aeruginosa. The following applies: Pseudomonas aeruginosa, ATCC27853, read-out: MIC APAE001, APAE001 (ATCC27853). In a few lines: as §1
Assay [7] relates to ASAU001 (laboratory strain of S. aureus, ATCC29213). The experiment in a line: MIC broth microdilution, ASAU001. It is filed as cell-based. As to conditions: Staphylococcus aureus, ATCC29213, read-out: MIC ASAU001. In short, it runs like this:
as §1

[8] abbreviates: ATCC25922, read-out: MIC AECO001.
[9] abbreviates: ATCC25922, read-out: MIC AECO001 HSA AGP.

`C[C@@H](N)[C@H](NC(=O)c1ccc(C#CC2CC2)cc1)C(=O)NO` [Example 137-21]: the MIC in assay [1] was less than 2 µg/mL; in assay [3] it was 2 to 16 µg/mL (≈ 6.64 to 53.1 µM); in assay [4] it was 16 to 64 µg/mL (≈ 53.1 to 212 µM); in assay [5] (setting [8]), 16 to 64 µg/mL (≈ 53.1 to 212 µM); in assay [5] (setting [9]), 16 to 64 µg/mL (≈ 53.1 to 212 µM); in assay [6], 2 to 16 µg/mL (≈ 6.64 to 53.1 µM). The MIC in assay [7] was in the range of 16 to 64 µg/mL (≈ 53.1 to 212 µM). For the same molecule, the “MIC APAE006 + PMBN” value in assay [2] is “A (MIC's of 2.0 μg/mL or less = A)”.

On to `CC(C)(N)[C@H](NC(=O)c1ccc(C#CC#Cc2cncs2)cc1)C(=O)NO` [Example 88-16], for which the MIC in assay [1] was less than 2 µg/mL; in assay [3], less than 2 µg/mL; in assay [4], less than 2 µg/mL; in assay [5] (setting [8]), less than 2 µg/mL; in assay [5] (setting [9]), 2 to 16 µg/mL (≈ 5.23 to 41.8 µM); in assay [6] it was less than 2 µg/mL. In addition, the MIC in assay [7] was in the range of 16 to 64 µg/mL (≈ 41.8 to 167 µM). In addition, the “MIC APAE006 + PMBN” value in assay [2] is “A (MIC's of 2.0 μg/mL or less = A)”.

For the molecule `CCC#CC#Cc1ccc(C(=O)N[C@H](C(=O)NO)[C@@H](C)N)cc1` [Example 91-7], the MIC was less than 2 µg/mL in assay [1]; 2 to 16 µg/mL (≈ 6.38 to 51.1 µM) in assay [3]; less than 2 µg/mL in assay [4]; less than 2 µg/mL in assay [5] (setting [8]); 2 to 16 µg/mL (≈ 6.38 to 51.1 µM) in assay [5] (setting [9]); less than 2 µg/mL in assay [6]. The MIC in assay [7] lay in the range of 2 to 16 µg/mL (≈ 6.38 to 51.1 µM). The “MIC APAE006 + PMBN” value in assay [2] is listed as “A (MIC's of 2.0 μg/mL or less = A)”.

For the molecule `CC(C)CCC#CC#Cc1ccc(C(=O)N[C@H](C(=O)NO)C(C)(C)N)cc1` [Example 91-21], the MIC in assay [1] is less than 2 µg/mL; in assay [3], 2 to 16 µg/mL (≈ 5.41 to 43.3 µM); in assay [4], less than 2 µg/mL; in assay [5] (setting [8]), less than 2 µg/mL; in assay [5] (setting [9]) it was 2 to 16 µg/mL (≈ 5.41 to 43.3 µM); in assay [6] it was 2 to 16 µg/mL (≈ 5.41 to 43.3 µM). In addition, in assay [7], the MIC is 2 to 16 µg/mL (≈ 5.41 to 43.3 µM). In addition, the “MIC APAE006 + PMBN” value in assay [2] is given as “A (MIC's of 2.0 μg/mL or less = A)”.

On to `CC(C)(O)[C@H](NC(=O)c1ccc(C#CC#Cc2cccc(F)c2)cc1)C(=O)NO` [Example 82-24], for which the MIC was less than 2 µg/mL in assay [1]; less than 2 µg/mL in assay [3]; less than 2 µg/mL in assay [4]; less than 2 µg/mL in assay [5] (setting [8]); 2 to 16 µg/mL (≈ 5.07 to 40.6 µM) in assay [5] (setting [9]); 2 to 16 µg/mL (≈ 5.07 to 40.6 µM) in assay [6]. Moreover, in assay [7], the MIC fell in the range of 2 to 16 µg/mL (≈ 5.07 to 40.6 µM). Further, the “MIC APAE006 + PMBN” value in assay [2] is given as “A (MIC's of 2.0 μg/mL or less = A)”.

In the case of `CC(C)CCC#CC#Cc1ccc(C(=O)N[C@H](C(=O)NO)C(C)(C)O)cc1` [Example 91-18], the MIC in assay [1] was 2 to 16 µg/mL (≈ 5.4 to 43.2 µM); in assay [3], 2 to 16 µg/mL (≈ 5.4 to 43.2 µM); in assay [4] it was less than 2 µg/mL; in assay [5] (setting [8]), less than 2 µg/mL; in assay [5] (setting [9]), less than 2 µg/mL; in assay [6] it was 2 to 16 µg/mL (≈ 5.4 to 43.2 µM). Besides, the MIC in assay [7] was in the range of 16 to 64 µg/mL (≈ 43.2 to 173 µM). The “MIC APAE006 + PMBN” value in assay [2] is given as “A (MIC's of 2.0 μg/mL or less = A)”.

Regarding `CC(C)(O)[C@H](NC(=O)c1ccc(C#C/C=C/c2cccnc2)cc1)C(=O)NO` [Example 106-5], the MIC in assay [1] was less than 2 µg/mL; in assay [3], 2 to 16 µg/mL (≈ 5.27 to 42.2 µM); in assay [4] it was less than 2 µg/mL; in assay [5] (setting [8]), less than 2 µg/mL; in assay [5] (setting [9]), 2 to 16 µg/mL (≈ 5.27 to 42.2 µM); in assay [6] it was 2 to 16 µg/mL (≈ 5.27 to 42.2 µM). In assay [7], the MIC lay within 16 to 64 µg/mL (≈ 42.2 to 169 µM). Further, in assay [2], the “MIC APAE006 + PMBN” value is on record as “A (MIC's of 2.0 μg/mL or less = A)”.

Turning to `CC(C)(N)[C@H](NC(=O)c1ccc(/C=C/C#CC2CC2)cc1)C(=O)NO` [Example 114-18], the MIC in assay [1] is less than 2 µg/mL; in assay [3], less than 2 µg/mL; in assay [4] it was less than 2 µg/mL; in assay [5] (setting [8]), less than 2 µg/mL; in assay [5] (setting [9]) it was 2 to 16 µg/mL (≈ 5.86 to 46.9 µM); in assay [6] it was less than 2 µg/mL. Also, in assay [7], the MIC was 16 to 64 µg/mL (≈ 46.9 to 187 µM). Also, the “MIC APAE006 + PMBN” value in assay [2] is “A (MIC's of 2.0 μg/mL or less = A)”.

As to `C[C@@H](N)[C@H](NC(=O)c1ccc(C#CC#CC2CCNCC2)cc1)C(=O)NO` [Example 137-22], the MIC in assay [1] lay within 2 to 16 µg/mL (≈ 5.43 to 43.4 µM); in assay [3] it was 16 to 64 µg/mL (≈ 43.4 to 174 µM); in assay [4], 16 to 64 µg/mL (≈ 43.4 to 174 µM); in assay [5] (setting [8]), 16 to 64 µg/mL (≈ 43.4 to 174 µM); in assay [5] (setting [9]), 16 to 64 µg/mL (≈ 43.4 to 174 µM); in assay [6], 2 to 16 µg/mL (≈ 5.43 to 43.4 µM). Also, in assay [7], the MIC was 16 to 64 µg/mL (≈ 43.4 to 174 µM). Also, the “MIC APAE006 + PMBN” value in assay [2] is “B (MIC's of greater than 2.0 μg/mL to 16.0 μg/mL = B)”.

In the case of `CC(C)(O)[C@H](NC(=O)c1ccc(C#Cc2ccncc2)cc1)C(=O)NO` [Example 133-15], the MIC was less than 2 µg/mL in assay [1]; 2 to 16 µg/mL (≈ 5.66 to 45.3 µM) in assay [3]; less than 2 µg/mL in assay [4]; 2 to 16 µg/mL (≈ 5.66 to 45.3 µM) in assay [5] (setting [8]); 2 to 16 µg/mL (≈ 5.66 to 45.3 µM) in assay [5] (setting [9]); 2 to 16 µg/mL (≈ 5.66 to 45.3 µM) in assay [6]. The MIC in assay [7] is 16 to 64 µg/mL (≈ 45.3 to 181 µM). The “MIC APAE006 + PMBN” value in assay [2] is reported as “A (MIC's of 2.0 μg/mL or less = A)”.
